Experimental data: US20250270170A1, “2,3-DIMETHOXY-5-METHYL-1,4-BENZOQUINONE ALKYL ALCOHOL DERIVATIVE AND USE THEREOF” (BEIJING ANJIANXI BIO-MEDICAL TECHNOLOGY CO., LTD., priority 2021, published 2025)
“Also recorded” adds a separate entry of the source.

Legend:
[1] = Example 9: serum urea nitrogen (BUN) at the end of the assay; format: in vivo, nude mice
Procedure: On the last day of the assay, CO2 inhalation anesthesia was used on the animals 1 hour after the administration (R01). Blood was collected through the heart, and a part of the whole blood was added with EDTA-K2 for anticoagulation. The plasma was separated by centrifugation at 4° C. and 1500 g for 10 minutes. The plasma was collected, and stored in a −40° C. to −20° C. freezer (if necessary, it can be used for the determination of the plasma drug concentration). No anticoagulant was added to the other part of the whole blood, and the serum was separated by centrifugation after the blood coagulated, which was used for the detection of blood urea nitrogen. After the blood collection, the tumor tissue was collected, weighed and photographed. Then, the tumor was divided into two parts, quickly cryopreserved by liquid nitrogen, and transferred to a −90° C. to −60° C. freezer for storage. Bilateral kidneys were collected and fixed in 10% formalin.

[2] = system: VEGF/VEGFR/p-VEGFR and other proteins in NCI-N87 transplanted tumor tissues; assay: Example 4: Western blot of NCI-N87 transplanted tumor tissue proteins; format: in vivo, nude mice; conditions: Western blot grayscale vs blank solvent group, compound of formula (I) 2 mg/kg
Procedure: Western Blot technology was used to quantitatively detect the expression of VEGF/VEGFR, Survivin and other proteins in tumor tissues. […] In this study, 50 μg of tumor tissue proteins were added to each well, and the working concentrations of the antibodies were diluted according to the instructions. Briefly: the tumor tissue was taken, lysed with an RIPA protein lysis solution containing 1% PMSF and mixed protease inhibitors, and centrifuged at 12000×g for 20 min to take the supernatant; the concentration of proteins was detected by BCA method; 10% SDS-PAGE gel electrophoresis was performed; the proteins from SDS-PAGE gel were transfered to a PVDF membrane by semi-dry […]; the membrane was blocked with a fast blocking buffer for 10 minutes, and a primary antibody at corresponding working concentration was added, and incubated at 4° C. overnight; the membrane was washed with TBST for 3 times, and incubated with a secondary antibody at room temperature for 1 h; after washing the membrane three times, an image was developed and saved, and the grayscale values were analyzed with Image lab; the anti-Vinculin antibody was used as an internal reference control antibody.
The grayscale of the Western blot bands were calculated with Image J software, and Graphpad Prism 5 was used for related statistical processing. A two-sided t-test was used for comparison between two groups. P>0.05 means no significance (NS), P<0.05 is *, […], and P<0.001 is ***.

[3] = system: NCI-H460 cells; assay: CCK-8 cell proliferation assay, NCI-H460; format: cell-based; conditions: Homo sapiens
Procedure: (1) Cells in the logarithmic growth phase were taken and digested to make a cell suspension. 20 μl of the cell suspension was taken with a pipette, and added to a CountStar disposable cell counting plate for cell counting, and the counting results were recorded. The cell concentration was adjusted to 30,000 to 40,000 cells/ml (note: different cells have different growth rates, so the number of cells in each well was slightly different).
(2) A 96-well plate was taken. Since the wells in the outermost circle of the culture plate were easy to evaporate and dry, causing inaccurate volumes, and increasing errors, 100 μl of PBS was added to the wells in the outermost circle, which were not used as assay wells.
(3) The adjusted cell suspension was added to the 96-well plate, with 100 μl in each well, resulting approximately 3000 to 4000 cells in each well. The plate was placed in a 37° C. incubator under the condition of 5% CO2 for cell culture, and the drug was added when the cells adhered to the wall.
(4) Drug dilution. The concentration gradient was set as: 0 μM, 10 μM, 50 μM, 100 μM, and 200 μM, with 3 duplicates for each concentration. In addition, blank control wells containing only culture medium and drug without cells were also set.
(5) The plate was incubated in the incubator for 24 h, 48 h and 72 h, respectively. After reaching the set time point, the 96-well plate was taken out from the incubator, and 10 μl of CCK-8 reagent was added to each well, taking care to avoid bubbles. The plate was shaked to mix evenly, and put back into the incubator to culture for another 2 hours.
(6) To detect the absorbance, the 96-well plate was placed in a […], and the absorbance value (OD value) at 450 nm was detected. The data was recorded. Cell viability=(OD value of the assay well−OD value of the blank control well)/(OD value of the solvent control well−OD value of the blank control well)×100%.
(7) The data was imported into GraphPad Prism5 for plotting. The IC50 values were calculated, and the curves were drawn.

N.N.[Cl][Pt][Cl] [DDP, cisplatin]
BUN (mmol/L) Mean ± SE ([1]; serum, end of assay, A549 model, group B, DDP 4 mg/kg i.p. QW × 4): 21.17 ± 1.43 mmol/L | BUN (mmol/L) Mean ± SE ([1]; serum, end of assay, A549 model, group C, DDP 5/7/7/7 mg/kg i.p. QW × 4): 28.56 ± 1.79 mmol/L | expression of CyclinD1 [2]: up-regulated | expression of VEGFA [2]: down-regulated | expression of VEGFR2 [2]: up-regulated | expression of anti-apoptotic protein Survivin [2]: down-regulated | expression of cell cycle regulatory protein P21 [2]: down-regulated | expression of p-VEGFR2 [2]: down-regulated | expression of β-catenin [2]: up-regulated

COC1=C(OC)C(=O)C(CCCCCCCCCCOC(=O)Cc2c(C)n(C(=O)c3ccc(Cl)cc3)c3ccc(OC)cc23)=C(C)C1=O [compound of formula (I)]
BUN (mmol/L) Mean ± SE ([1]; mouse, in vivo, 18 mg/kg): 22.51 ± 1.24 mmol/L | BUN (mmol/L) Mean ± SE ([1]; mouse, in vivo, 36 mg/kg): 22.69 ± 1.17 mmol/L | IC50 ([3]; 24 h): 125.3 ± 1.01 µM | IC50 ([3]; 48 h): 66.4 ± 0.87 µM | IC50 ([3]; 72 h): 48.5 ± 1.12 µM | expression of CyclinD1 ([2]; 2 mg/kg): down-regulated; also recorded: downregulated | expression of PCNA ([2]; 2 mg/kg): up-regulated; also recorded: upregulated | expression of VEGFA ([2]; 2 mg/kg): down-regulated; also recorded: downregulated | expression of VEGFR2 ([2]; 2 mg/kg): down-regulated; also recorded: downregulated | expression of anti-apoptotic protein Survivin ([2]; 2 mg/kg): down-regulated; also recorded: downregulated | expression of cell cycle regulatory protein P21 ([2]; 2 mg/kg): up-regulated; also recorded: upregulated | expression of p-VEGFR2 ([2]; 2 mg/kg): down-regulated; also recorded: downregulated | expression of pro-apoptotic Bax ([2]; 2 mg/kg): down-regulated; also recorded: downregulated | expression of β-catenin ([2]; 2 mg/kg): down-regulated; also recorded: downregulated
